According to the supplement of paper PMC11208160:

Test: recombinant UMI read abundance after kanamycin selection (control-corrected) (log10(CPM+1)); higher = more efficient recombination; extreme values may be limits of the assay; sequences stand for … in AGTGCAGAGAAAATCGGCCAGTTTTCTCTGCCTGCAGTCCGCATGCCGTGGGACCCCTTGGGTTCTAACCTGTTGCCTAGATTTATGCAGCGGACTGCCTTTCTCCCAAAGTGATAAACCGG…AGGTTGGTTTCACT; site = the 11-nt donor
Description: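 Pooled E. coli donor-specificity screen for the IS621 bridge recombinase. Each library member carries a reprogrammed 11-nt donor and a full-length LE bridge RNA expressed in cis from the natural promoter, with a paired donor-binding loop (8-nt LDG + 4-nt RDG) and a target-binding loop fixed to T5. It is co-electroporated with a T5 target plasmid; recombinase is induced with 0.07 mM IPTG and recombinants are selected on kanamycin. UMIs are counted as CPM, averaged over two biological replicates and corrected by the unselected control. Molecule = full bridge RNA written as DNA, built from the T5 scaffold: LDG = donor specificity nt 1-8, RDG = reverse complement of nt 8-11.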
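Note: IS621 bridge recombinase in Escherichia coli cells against a fixed T5 target plasmid.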

Sequence | recombinant UMI read abundance (log10)
AATTTGGCATGGACCGGTTTTCCCGGTAATCCGTATTTGTG (site CATTTGGCTCA) | 0.00721
AATTTGGCATGGACCGGTTTTCCCGGTAATCCGTATTTGTG (site GATTTGGCTCA) | 0.011
AATTTGGCATGGACCGGTTTTCCCGGTAATCCGTATTTGTG (site TATTTGGCTCA) | 0.187
AATTTGTCATGGACCGGTTTTCCCGGTAATCCGTATTTGAT (site AATTTGTCTAT) | 0.517
ACAAGGACATGGACCGGTTTTCCCGGTAATCCGTATTTGTT (site ACAAGGACTAA) | 2.32
ACAAGTCCATGGACCGGTTTTCCCGGTAATCCGTATTTGTC (site ACAAGTCCTGA) | 0
ACACAGCCATGGACCGGTTTTCCCGGTAATCCGTATTTGTC (site ACACAGCCTGA) | 0
ACACATCCATGGACCGGTTTTCCCGGTAATCCGTATTTGAC (site AAACATCCTGT) | 0
ACACATCCATGGACCGGTTTTCCCGGTAATCCGTATTTGAC (site ACAAATCCTGT) | 0
ACACATCCATGGACCGGTTTTCCCGGTAATCCGTATTTGAC (site ACACAACCTGT) | 0
ACACATCCATGGACCGGTTTTCCCGGTAATCCGTATTTGAC (site ACACACCCTGT) | 0.501
ACACATCCATGGACCGGTTTTCCCGGTAATCCGTATTTGAC (site ACACAGCCTGT) | 0.424
ACACATCCATGGACCGGTTTTCCCGGTAATCCGTATTTGAC (site ACACATACTGT) | 0.457
ACACATCCATGGACCGGTTTTCCCGGTAATCCGTATTTGAC (site ACACATCCTAT) | 0.0886
ACACATCCATGGACCGGTTTTCCCGGTAATCCGTATTTGAC (site ACACATCCTCT) | 0.265
ACACATCCATGGACCGGTTTTCCCGGTAATCCGTATTTGAC (site ACACATCCTGA) | 0
ACACATCCATGGACCGGTTTTCCCGGTAATCCGTATTTGAC (site ACACATCCTGC) | 0
ACACATCCATGGACCGGTTTTCCCGGTAATCCGTATTTGAC (site ACACATCCTGG) | 0
ACACATCCATGGACCGGTTTTCCCGGTAATCCGTATTTGAC (site ACACATCCTGT) | 1.22
ACACATCCATGGACCGGTTTTCCCGGTAATCCGTATTTGAC (site ACACATCCTTT) | 0.421
ACACATCCATGGACCGGTTTTCCCGGTAATCCGTATTTGAC (site ACACATGCTGT) | 0
ACACATCCATGGACCGGTTTTCCCGGTAATCCGTATTTGAC (site ACACATTCTGT) | 0.87

Sequence | recombinant UMI read abundance (log10)
ACACATCCATGGACCGGTTTTCCCGGTAATCCGTATTTGAC (site ACACCTCCTGT) | 0.91
ACACATCCATGGACCGGTTTTCCCGGTAATCCGTATTTGAC (site ACACGTCCTGT) | 0.84
ACACATCCATGGACCGGTTTTCCCGGTAATCCGTATTTGAC (site ACACTTCCTGT) | 0
ACACATCCATGGACCGGTTTTCCCGGTAATCCGTATTTGAC (site ACAGATCCTGT) | 0
ACACATCCATGGACCGGTTTTCCCGGTAATCCGTATTTGAC (site ACATATCCTGT) | 0.818
ACACATCCATGGACCGGTTTTCCCGGTAATCCGTATTTGAC (site ACCCATCCTGT) | 0
ACACATCCATGGACCGGTTTTCCCGGTAATCCGTATTTGAC (site ACGCATCCTGT) | 0
ACACATCCATGGACCGGTTTTCCCGGTAATCCGTATTTGAC (site ACTCATCCTGT) | 0
ACACATCCATGGACCGGTTTTCCCGGTAATCCGTATTTGAC (site AGACATCCTGT) | 0
ACACATCCATGGACCGGTTTTCCCGGTAATCCGTATTTGAC (site ATACATCCTGT) | 0
ACACATCCATGGACCGGTTTTCCCGGTAATCCGTATTTGAC (site CCACATCCTGT) | 0.581
ACACATCCATGGACCGGTTTTCCCGGTAATCCGTATTTGAC (site GCACATCCTGT) | 0
ACACATCCATGGACCGGTTTTCCCGGTAATCCGTATTTGAC (site TCACATCCTGT) | 0.538
ACACATCCATGGACCGGTTTTCCCGGTAATCCGTATTTGGC (site ACACATCCTGA) | 0
ACACATCCATGGACCGGTTTTCCCGGTAATCCGTATTTGGC (site ACACATCCTGC) | 1.5
ACACATCCATGGACCGGTTTTCCCGGTAATCCGTATTTGGC (site ACACATCCTGG) | 0
ACACATCCATGGACCGGTTTTCCCGGTAATCCGTATTTGGC (site ACACATCCTGT) | 1.19
ACACCATCATGGACCGGTTTTCCCGGTAATCCGTATTTGAG (site ACACCATCTCT) | 1.25
ACACCATCATGGACCGGTTTTCCCGGTAATCCGTATTTGCA (site ACACCATCTTG) | 2.8
ACACCATCATGGACCGGTTTTCCCGGTAATCCGTATTTGCA (site ACAGTATCTTG) | 1.21
ACACCCTCATGGACCGGTTTTCCCGGTAATCCGTATTTGAC (site ACACCCTCTGT) | 3.42
ACACCGTCATGGACCGGTTTTCCCGGTAATCCGTATTTGCC (site ACACCGTCTGG) | 3.04

Sequence | recombinant UMI read abundance (log10)
ACACGAACATGGACCGGTTTTCCCGGTAATCCGTATTTGGC (site ACACGAACTGA) | 1.19
ACACGAACATGGACCGGTTTTCCCGGTAATCCGTATTTGGC (site ACACGAACTGC) | 2.77
ACACGAACATGGACCGGTTTTCCCGGTAATCCGTATTTGGC (site ACACGAACTGG) | 0
ACACGAACATGGACCGGTTTTCCCGGTAATCCGTATTTGGC (site ACACGAACTGT) | 1.93
ACACGAACATGGACCGGTTTTCCCGGTAATCCGTATTTGTA (site ACACGAACTAA) | 0.0114
ACACGAACATGGACCGGTTTTCCCGGTAATCCGTATTTGTA (site ACACGAACTCA) | 0.747
ACACGAACATGGACCGGTTTTCCCGGTAATCCGTATTTGTA (site ACACGAACTGA) | 1.52
ACACGAACATGGACCGGTTTTCCCGGTAATCCGTATTTGTA (site ACACGAACTTA) | 2.52
ACACGATCATGGACCGGTTTTCCCGGTAATCCGTATTTGTC (site ACACGAACTGA) | 0.373
ACACGATCATGGACCGGTTTTCCCGGTAATCCGTATTTGTC (site ACACGACCTGA) | 0
ACACGATCATGGACCGGTTTTCCCGGTAATCCGTATTTGTC (site ACACGAGCTGA) | 0
ACACGATCATGGACCGGTTTTCCCGGTAATCCGTATTTGTC (site ACACGATCTGA) | 2.46
ACACGTCCATGGACCGGTTTTCCCGGTAATCCGTATTTGAC (site ACACATCCTGT) | 0
ACACGTCCATGGACCGGTTTTCCCGGTAATCCGTATTTGAC (site ACACCTCCTGT) | 0
ACACGTCCATGGACCGGTTTTCCCGGTAATCCGTATTTGAC (site ACACGTCCTGT) | 0.959
ACACGTCCATGGACCGGTTTTCCCGGTAATCCGTATTTGAC (site ACACTTCCTGT) | 0
ACACTAACATGGACCGGTTTTCCCGGTAATCCGTATTTGTC (site ACACAAACTGA) | 0
ACACTAACATGGACCGGTTTTCCCGGTAATCCGTATTTGTC (site ACACCAACTGA) | 0.94
ACACTAACATGGACCGGTTTTCCCGGTAATCCGTATTTGTC (site ACACGAACTGA) | 0
ACACTAACATGGACCGGTTTTCCCGGTAATCCGTATTTGTC (site ACACTAACTGA) | 2.12
ACACTATCATGGACCGGTTTTCCCGGTAATCCGTATTTGTA (site ACACTATCTTA) | 2.98
